Source: article PMC12567141, “Design, Synthesis and Biological Evaluation of Pyrazolopyrimidine Derivatives as Aryl Hydrocarbon Receptor Antagonists for Colorectal Cancer Immunotherapy” (Pharmaceutics, 2025)

Tests used:
Format in all cases: cell-based
[1] = test system: PD-1 expression in Jurkat/PD-1 cells; test: PD-1 expression by FACS in PHA-treated Jurkat/PD-1 cells
Method: For analysis of PD-1 expression in PD-1-overexpressing Jurkat T cells (Jurkat/PD-1 cells), Jurkat/PD-1 cells in 24-well plates were treated with 2 μg/mL Phytohaemagglutinin (PHA) and incubated with 5 and 10 μM 7k for 24 h. Cells were collected were stained with APC-conjugated PD-1 Ab at 4 °C for 30 min (BioLegend). After washing with FACS buffer (Biolegend) three times, the cells were analysed using Becton Dickinson LSRFortessa^TM and analyzed with FlowJo software. Isotype-matched monoclonal antibodies were used as controls. The data were analysed using Flowjo analysis software (FlowJo LLC, Ashland, OR, USA).

[2] = test system: colorectal cancer cells; test: Cell viability assay (CCK-8), colorectal cancer cells; conditions: 24 h
Method: Chinese hamster ovary CHO cells, mouse fibroblast L929 cells, normal colon CCD18-Co cells, monkey kidney fibroblast COS-7 cells, colorectal cancer cells including HCT-116, RKO, SW480, SW620, CT26, and MC38 cells were purchased from ATCC (American Type Culture Collection). CHO, L929, Cos-7, and all cancer cells were maintained in RPMI 1640 or DMEM supplemented with 10% FBS (Gibco FBS; Thermo Fisher Scientific, Hanover Park, IL, USA) and 1% streptomycin/penicillin. CCD18-Co cells were cultured in high-glucose Dulbecco modified Eagle medium containing 10% FBS and 1% streptomycin/penicillin. All cells were grown in 5% CO2 at 37 °C. Mycoplasma testing was regularly performed every month using the BioMycoX Mycoplasma PCR Detection Kit (CellSafe, Yongin, Republic of Korea).
Cell viability was analyzed using a Cell Counting Kit-8 (Dojindo molecular technologies, Rockville, MD, USA). Cells were seeded in 96-well plates and treated with different concentrations of 7k. At the indicated time points, CCK-8 (10 μL/well) reagents were added to the cells, followed by further incubation at 37 °C for 90 min. The absorbance at 450 nm was measured using a plate reader (BioTek instruments, Winooski, VT, USA).

[3] = target: AhR (Danio rerio, UniProt Q9YGV3); test: IC50 determination, Cyp1a dual luciferase reporter assay in transfected COS-7 cells; conditions: AhR2/ARNT-1c/Cyp1a-luciferase, TCDD 10 nM
Method: All experiments were conducted as described previously unless stated otherwise. COS-7 cells were seeded onto 24-well plate until approximately 65% confluency. The cells were transfected with ARNT-1c expression plasmid (50 ng), AhR2 expression plasmid (5 ng), Cyp1a-firefly luciferase reporter plasmid (20 ng) and pRL-TK Renilla luciferase plasmid (2 ng) using Lipofectamine 3000 (Thermo Fisher Scientific) according to the manufacturer’s protocol. The pEGFP-C1 plasmid (Clontech, Tempe, AZ, USA) was used to assess the transfection efficiency. At 5 h post transfection, serially diluted test compounds at indicated concentration were added to the cells. Simultaneously, TCDD (10 nM) or indicated compounds with the highest concentration were added in the control wells. At 1 h post compound treatment, TCDD (10 nM) was added to all wells except the control wells. At 18 h post TCDD treatment, the medium was removed, and the cells washed with Dulbecco’s phosphate buffered saline (DPBS) and harvested using 1x Passive Lysis Buffer (Promega, Madison, WI, USA). The dual luciferase assay was carried out using a Dual-Luciferase Reporter Assay System (Promega, Madison, WI, USA) and an Orion L Microplate Luminometer (Titertek Berthold, Pforzheim, BW, Germany) as per manufacturer’s protocol. The relative light unit (RLU) values were normalized and expressed as toxic induced ratio (TIR). IC50 was determined using Prism 9.0 (GraphPad Software).

[4] = test system: AhR nuclear translocation in MC38 cells; test: Kynurenine-induced AhR nuclear translocation (Western blot); conditions: kynurenine-treated MC38 cells, 24 h
Method: Cells were harvested and washed twice in cold PBS. Cytoplasmic and nuclear protein were isolated by NE-PER^TM (Thermo Fisher Scientific, Waltham, MA, USA). The procedure was completed according to the kit instructions.
For the extraction of total protein, cells were treated with 7k for 24 h in a CO2 incubator at 37 °C and washed twice with phosphate-buffered saline (PBS). Cell pellets were lysed using radioimmunoprecipitation assay (RIPA) buffer (Thermo Fisher Scientific) containing a protease and phosphatase inhibitor cocktail kit (Thermo Fisher Scientific). The lysed cells were briefly vortexed at intervals and subsequently centrifuged at 13,000× g at 4 °C. The protein sample was quantified with the bicinchoninic acid (BCA) protein assay kit (Thermo Fisher Scientific).
Equal amounts of proteins were loaded onto 10% sodium dodecyl sulfate polyacrylamide gel electrophoresis and transferred onto PVDF membranes (Millipore, Billerica, MA, USA). The membrane was blocked with 5% skim milk in Tris-buffered saline (TBS) containing Tween-20 (TBS-T) for an hour and probed with the respective primary antibodies in 5% BSA overnight at 4 °C. Following incubation, the membrane was probed with horseradish peroxidase (HRP)-conjugated secondary antibodies for an hour at room temperature. […]

Sequence of AhR (Q9YGV3 1-1027): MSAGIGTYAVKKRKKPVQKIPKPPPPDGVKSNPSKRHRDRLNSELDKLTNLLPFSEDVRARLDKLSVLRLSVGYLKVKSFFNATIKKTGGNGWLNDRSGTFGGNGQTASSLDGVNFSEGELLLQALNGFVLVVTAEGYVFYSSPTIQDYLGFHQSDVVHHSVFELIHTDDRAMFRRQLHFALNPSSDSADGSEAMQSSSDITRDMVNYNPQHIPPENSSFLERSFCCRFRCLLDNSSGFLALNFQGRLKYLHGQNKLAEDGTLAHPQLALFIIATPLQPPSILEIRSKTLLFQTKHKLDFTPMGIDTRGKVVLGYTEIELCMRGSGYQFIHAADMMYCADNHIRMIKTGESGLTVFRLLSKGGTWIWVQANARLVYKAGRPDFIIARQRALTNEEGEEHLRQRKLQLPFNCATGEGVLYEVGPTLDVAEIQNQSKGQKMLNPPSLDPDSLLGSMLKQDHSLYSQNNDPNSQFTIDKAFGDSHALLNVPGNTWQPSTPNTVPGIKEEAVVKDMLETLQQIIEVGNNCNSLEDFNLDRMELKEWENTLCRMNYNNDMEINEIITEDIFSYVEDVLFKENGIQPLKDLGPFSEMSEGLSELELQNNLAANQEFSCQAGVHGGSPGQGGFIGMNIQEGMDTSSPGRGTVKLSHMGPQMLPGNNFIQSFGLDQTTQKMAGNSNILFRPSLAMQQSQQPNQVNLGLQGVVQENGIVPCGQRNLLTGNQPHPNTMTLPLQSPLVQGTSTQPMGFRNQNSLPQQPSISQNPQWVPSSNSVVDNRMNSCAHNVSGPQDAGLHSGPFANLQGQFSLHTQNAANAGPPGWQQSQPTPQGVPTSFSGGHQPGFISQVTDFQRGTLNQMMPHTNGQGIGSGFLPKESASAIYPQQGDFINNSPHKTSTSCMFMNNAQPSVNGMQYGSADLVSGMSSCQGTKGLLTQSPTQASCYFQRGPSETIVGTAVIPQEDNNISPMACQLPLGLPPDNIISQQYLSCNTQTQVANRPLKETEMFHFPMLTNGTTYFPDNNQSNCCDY
Sequence of AhR (Q64FF9 1-503 partner): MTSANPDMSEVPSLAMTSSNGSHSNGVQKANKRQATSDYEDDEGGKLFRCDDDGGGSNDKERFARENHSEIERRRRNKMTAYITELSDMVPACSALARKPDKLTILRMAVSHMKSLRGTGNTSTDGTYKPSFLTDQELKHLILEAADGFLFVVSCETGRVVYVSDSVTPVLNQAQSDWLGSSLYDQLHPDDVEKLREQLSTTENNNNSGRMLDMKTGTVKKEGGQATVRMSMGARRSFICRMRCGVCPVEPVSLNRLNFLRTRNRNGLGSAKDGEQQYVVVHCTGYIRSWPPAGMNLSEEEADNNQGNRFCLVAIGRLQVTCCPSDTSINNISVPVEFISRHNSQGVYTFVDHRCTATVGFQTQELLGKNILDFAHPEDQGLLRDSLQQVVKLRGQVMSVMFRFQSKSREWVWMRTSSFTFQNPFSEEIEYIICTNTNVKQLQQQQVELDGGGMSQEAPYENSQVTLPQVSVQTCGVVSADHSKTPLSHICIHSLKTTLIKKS

CC(C)n1cc2nc(-c3cc(F)cc(F)c3)nc(NCCc3c[nH]c4ccccc34)c2n1 [Compound 7k, N-(2-(1H-indol-3-yl)ethyl)-5-(3,5-difluorophenyl)-2-isopropyl-2H-pyrazolo [4,3-d]pyrimidin-7-amine]
PD-1 expression [1]: reduced PD-1 expression | cell proliferation / viability of colorectal cancer cells [2]: dose-dependent decrease in cell proliferation | IC50 [3]: 13.7 nM | AhR expression in the nucleus [4]: decreased AhR expression in the nucleus
